According to patent publication US11690810B2, “Combination treatment of bacterial infection” (The Chinese University of Hong Kong, priority 2018, dated 2023):

Experiments:
Experiment in all cases: MIC and checkerboard (FIC) assay
[1] = system: S. aureus ATCC25923 (methicillin sensitive); conditions: Staphylococcus aureus
CA-MRSA strain ST30 = assay type: cell-based, Staphylococcus aureus
HA MRSA W239 = system: HA MRSA W239
HA MRSA W232 = system: HA MRSA W232
[2] = system: clinical fusidic acid resistant MRSA strain 73621; assay type: cell-based, Staphylococcus aureus; conditions: for FIC / MIC combine: 73621
MRSA SA-ST239 = system: MRSA SA-ST239
HA MRSA W233 = system: HA MRSA W233
[3] = system: S. aureus SA-ANT4′ (ANT4), resistant to fusidic acid; conditions: for FIC / MIC combine: ANT4
HA MRSA W238 = system: HA MRSA W238
[4] = system: S. aureus SA-APH2″-AAC6′ (APH2), resistant to gentamicin
HA MRSA W240 = system: HA MRSA W240
HA MRSA W235 = system: HA MRSA W235
CA MRSA W114 = system: CA MRSA W114
CA MRSA W103 = system: CA MRSA W103
HA MRSA W231 = system: HA MRSA W231
CA MRSA W47 = system: CA MRSA W47
CA MRSA W44 = system: CA MRSA W44
CA MRSA W113 = system: CA MRSA W113
[5] = Staphylococcus aureus, MRSA, read-out: MIC alone
[6] = ST239, ECG with WQD-169 (Kuraridin)
[7] = Staphylococcus aureus, read-out: MIC 99.9
[8] = Staphylococcus aureus, read-out: MIC alone
[9] = APH2″-AAC6′, ECG with WQD-169 (Kuraridin)

O=C(O[C@@H]1Cc2c(O)cc(O)cc2O[C@@H]1c1ccc(O)c(O)c1)c1cc(O)c(O)c(O)c1 [ECG, epicatechin gallate]
MIC ([1]; ATCC25293 / ATCC25923, read-out: MIC alone): 512 mg/L | MIC90 ([1]; ATCC25923): 128 mg/L | MIC99 ([1]; ATCC25923, read-out: MIC 99.9): > 512 mg/L | FIC (CA-MRSA strain ST30; ST30, ECG with Kur): 0.0004 | MIC combine (CA-MRSA strain ST30; ST30, ECG with Kur): 0.25 mg/L | FIC (CA-MRSA strain ST30; ST30, ECG+Kur+Van): 0.0004 | MIC combine (CA-MRSA strain ST30; ST30, ECG+Kur+Van): 0.25 mg/L | MIC alone (CA-MRSA strain ST30; ST30, Table 5): 512 mg/L | MIC (CA-MRSA strain ST30; [5]): 512 mg/L | MIC (HA MRSA W239; [5]): 512 mg/L | FIC (HA MRSA W239; W239, ECG with Kur): 0.002 | MIC combine (HA MRSA W239; W239, ECG with Kur): 1 mg/L | FIC (HA MRSA W239; W239, ECG+Kur+Van): 0.0009 | MIC combine (HA MRSA W239; W239, ECG+Kur+Van): 0.5 mg/L | MIC alone (HA MRSA W239; W239, Table 5): 512 mg/L | MIC (HA MRSA W232; [5]): 512 mg/L | FIC (HA MRSA W232; W232, ECG with Kur): 0.008 | MIC combine (HA MRSA W232; W232, ECG with Kur): 4 mg/L | FIC (HA MRSA W232; W232, ECG+Kur+Van): 0.03 | MIC combine (HA MRSA W232; W232, ECG+Kur+Van): 8 mg/L | MIC alone (HA MRSA W232; W232, Table 5): 512 mg/L | FIC ([2]; ECG+Kur+Fus): 0.004 | MIC combine ([2]; ECG+Kur+Fus): 0.25 mg/L | FIC ([2]; ECG+Kur, no Fus): 0.003 | MIC combine ([2]; ECG+Kur, no Fus): 16 mg/L | MIC [2, 5]: 512 mg/L | FIC (MRSA SA-ST239; ST239, ECG with Kur): 0.004 | MIC combine (MRSA SA-ST239; ST239, ECG with Kur): 2 mg/L | FIC (MRSA SA-ST239; ST239, ECG with WQD-164): 0.001 | MIC combine (MRSA SA-ST239; ST239, ECG with WQD-164): 2 mg/L | FIC (MRSA SA-ST239; ST239, ECG with WQD-165): 0.0009 | MIC combine (MRSA SA-ST239; ST239, ECG with WQD-165): 0.5 mg/L | FIC (MRSA SA-ST239; [6]): 0.007 | MIC combine (MRSA SA-ST239; [6]): 4 mg/L | FIC (MRSA SA-ST239; ST239, ECG with WQD-175): 0.0009 | MIC combine (MRSA SA-ST239; ST239, ECG with WQD-175): 0.5 mg/L | FIC (MRSA SA-ST239; ST239, ECG+Kur+Van): 0.0004 | MIC combine (MRSA SA-ST239; ST239, ECG+Kur+Van): 0.25 mg/L | MIC alone (MRSA SA-ST239; ST239, Table 5): 512 mg/L | MIC90 (MRSA SA-ST239; Staphylococcus aureus, MRSA): 16 mg/L | MIC99 (MRSA SA-ST239; Staphylococcus aureus, MRSA, read-out: MIC 99.9): > 512 mg/L | MIC (MRSA SA-ST239; [5]): 512 mg/L | MIC alone (MRSA SA-ST239; Strain ST239, Table 9): 512 mg/L | MIC (HA MRSA W233; [5]): 512 mg/L | MIC alone (HA MRSA W233; W233 (gentamicin resistant)): 512 mg/L | FIC (HA MRSA W233; W233, ECG with Kur): 0.004 | MIC combine (HA MRSA W233; W233, ECG with Kur): 2 mg/L | FIC (HA MRSA W233; W233, ECG+Kur+Gen): 0.0005 | MIC combine (HA MRSA W233; W233, ECG+Kur+Gen): 0.25 mg/L | FIC (HA MRSA W233; W233, ECG+Kur+Van): 0.03 | MIC combine (HA MRSA W233; W233, ECG+Kur+Van): 8 mg/L | FIC (HA MRSA W233; W233, ECG+Kur, no Gen): 0.03 | MIC combine (HA MRSA W233; W233, ECG+Kur, no Gen): 16 mg/L | MIC alone (HA MRSA W233; W233, Table 5): 512 mg/L | MIC alone ([3]; ANT4 (fusidic acid resistant)): 512 mg/L | FIC ([3]; ECG+Kur+Fus): 0.0007 | MIC combine ([3]; ECG+Kur+Fus): 4 mg/L | FIC ([3]; ECG+Kur, no Fus): 0.03 | MIC combine ([3]; ECG+Kur, no Fus): 16 mg/L | FIC ([3]; Kuraridin with ECG): 0.03 | MIC combine ([3]; Kuraridin with ECG): 16 mg/L | MIC90 ([3]; Staphylococcus aureus): 8 mg/L | MIC99 [3, 7]: > 512 mg/L | MIC [3, 8]: 512 mg/L | MIC (HA MRSA W238; [5]): 512 mg/L | MIC alone (HA MRSA W238; W238 (gentamicin resistant)): 512 mg/L | FIC (HA MRSA W238; W238, ECG with Kur): 0.002 | MIC combine (HA MRSA W238; W238, ECG with Kur): 1 mg/L | FIC (HA MRSA W238; W238, ECG+Kur+Gen): 0.0004 | MIC combine (HA MRSA W238; W238, ECG+Kur+Gen): 0.25 mg/L | FIC (HA MRSA W238; W238, ECG+Kur+Van): 0.0004 | MIC combine (HA MRSA W238; W238, ECG+Kur+Van): 0.25 mg/L | FIC (HA MRSA W238; W238, ECG+Kur, no Gen): 0.0004 | MIC combine (HA MRSA W238; W238, ECG+Kur, no Gen): 0.5 mg/L | MIC alone (HA MRSA W238; W238, Table 5): 512 mg/L | MIC alone ([4]; APH2 (gentamicin resistant)): 512 mg/L | FIC ([4]; APH2, ECG+Kur+Gen): 0.0005 | MIC combine ([4]; APH2, ECG+Kur+Gen): 0.25 mg/L | FIC ([4]; APH2, ECG+Kur, no Gen): 0.0009 | MIC combine ([4]; APH2, ECG+Kur, no Gen): 0.5 mg/L | FIC ([4]; APH2, Kuraridin with ECG): 0.0009 | MIC combine ([4]; APH2, Kuraridin with ECG): 0.5 mg/L | FIC ([4]; APH2″-AAC6′, ECG with WQD-164): 0.001 | MIC combine ([4]; APH2″-AAC6′, ECG with WQD-164): 1 mg/L | FIC ([4]; APH2″-AAC6′, ECG with WQD-165): 0.0009 | MIC combine ([4]; APH2″-AAC6′, ECG with WQD-165): 0.5 mg/L | FIC [4, 9]: 0.007 | MIC combine [4, 9]: 4 mg/L | FIC ([4]; APH2″-AAC6′, ECG with WQD-175): 0.0009 | MIC combine ([4]; APH2″-AAC6′, ECG with WQD-175): 0.5 mg/L | MIC90 ([4]; Staphylococcus aureus): 8 mg/L | MIC99 [4, 7]: > 512 mg/L | MIC [4, 8]: 512 mg/L | MIC alone ([4]; Strain APH2″-AAC6′, Table 9): 512 mg/L | MIC (HA MRSA W240; [5]): 512 mg/L | FIC (HA MRSA W240; W240, ECG with Kur): 0.008 | MIC combine (HA MRSA W240; W240, ECG with Kur): 4 mg/L | MIC (HA MRSA W235; [5]): 512 mg/L | FIC (HA MRSA W235; W235, ECG with Kur): 0.002 | MIC combine (HA MRSA W235; W235, ECG with Kur): 1 mg/L | MIC (CA MRSA W114; [5]): 512 mg/L | FIC (CA MRSA W114; W114, ECG with Kur): 0.002 | MIC combine (CA MRSA W114; W114, ECG with Kur): 1 mg/L | MIC (CA MRSA W103; [5]): 512 mg/L | FIC (CA MRSA W103; W103, ECG with Kur): 0.002 | MIC combine (CA MRSA W103; W103, ECG with Kur): 1 mg/L | MIC (HA MRSA W231; [5]): 512 mg/L | MIC alone (HA MRSA W231; W231 (gentamicin resistant)): 512 mg/L | FIC (HA MRSA W231; W231, ECG with Kur): 0.016 | MIC combine (HA MRSA W231; W231, ECG with Kur): 8 mg/L | FIC (HA MRSA W231; W231, ECG+Kur+Gen): 0.0004 | MIC combine (HA MRSA W231; W231, ECG+Kur+Gen): 0.25 mg/L | FIC (HA MRSA W231; W231, ECG+Kur, no Gen): 0.008 | MIC combine (HA MRSA W231; W231, ECG+Kur, no Gen): 4 mg/L | MIC alone (HA MRSA W231; W231, Table 5): 512 mg/L | MIC (CA MRSA W47; [5]): 512 mg/L | FIC (CA MRSA W47; W47, ECG with Kur): 0.004 | MIC combine (CA MRSA W47; W47, ECG with Kur): 2 mg/L | FIC (CA MRSA W47; W47, ECG+Kur+Van): 0.0004 | MIC combine (CA MRSA W47; W47, ECG+Kur+Van): 0.25 mg/L | MIC alone (CA MRSA W47; W47, Table 5): 512 mg/L | MIC (CA MRSA W44; [5]): 512 mg/L | FIC (CA MRSA W44; W44, ECG with Kur): 0.004 | MIC combine (CA MRSA W44; W44, ECG with Kur): 2 mg/L | FIC (CA MRSA W44; W44, ECG+Kur+Van): 0.0004 | MIC combine (CA MRSA W44; W44, ECG+Kur+Van): 0.25 mg/L | MIC alone (CA MRSA W44; W44, Table 5): 512 mg/L | MIC (CA MRSA W113; [5]): 512 mg/L | FIC (CA MRSA W113; W113, ECG with Kur): 0.002 | MIC combine (CA MRSA W113; W113, ECG with Kur): 1 mg/L
